Experiments:
Type in all cases: biochemical
[1] = target: T1, Human Tyk2 kinase domain (Homo sapiens, UniProt P29597); test: Tyk2 Inhibition Assay (Omnia kinase fluorescence peptide substrate); details: averaged IC50 ranges; 10 μM (Km app) or 1 mM ATP, 2 nM Tyk2
T1 construct: comprising amino acids 886 to 1187; His10 (10 histidine residues) (C, cleaved yes); made in house
T1 sequence (P29597 886-1187): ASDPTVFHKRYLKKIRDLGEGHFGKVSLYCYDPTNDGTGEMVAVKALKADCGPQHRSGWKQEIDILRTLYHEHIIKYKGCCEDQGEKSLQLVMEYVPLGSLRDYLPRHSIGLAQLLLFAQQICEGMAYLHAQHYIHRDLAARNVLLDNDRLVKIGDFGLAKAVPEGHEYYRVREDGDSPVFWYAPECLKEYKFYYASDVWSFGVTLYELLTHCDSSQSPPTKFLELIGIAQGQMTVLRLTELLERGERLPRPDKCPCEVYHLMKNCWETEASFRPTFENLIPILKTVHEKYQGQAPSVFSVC
Outline: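 Phosphorylation of 8 μM Omnia Y12 peptide followed kinetically by Sox fluorescence, ex 360/em 485 nm, every 50 s for 45 min. Enzyme: 2 nM Tyk2 kinase domain (aa 886–1187, His tag removed); ATP at 10 μM (Km app) or 1 mM; buffer HEPES pH 7.4 with MgCl2, Triton X-100, DTT. 10-point curves up to 10 μM, IC50 from 4-parameter logistic fit.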

[2] = target: T2, JAK1 (Homo sapiens, UniProt P23458); test: JAK1 Inhibition Assay (Omnia kinase fluorescence peptide substrate); details: averaged IC50 ranges; 40 μM (Km app) or 1 mM ATP, 15 nM JAK1
T2 construct: purchased Invitrogen Corporation, Carlsbad, Calif; IVGN PV4775
T2 sequence (P23458 whole entry): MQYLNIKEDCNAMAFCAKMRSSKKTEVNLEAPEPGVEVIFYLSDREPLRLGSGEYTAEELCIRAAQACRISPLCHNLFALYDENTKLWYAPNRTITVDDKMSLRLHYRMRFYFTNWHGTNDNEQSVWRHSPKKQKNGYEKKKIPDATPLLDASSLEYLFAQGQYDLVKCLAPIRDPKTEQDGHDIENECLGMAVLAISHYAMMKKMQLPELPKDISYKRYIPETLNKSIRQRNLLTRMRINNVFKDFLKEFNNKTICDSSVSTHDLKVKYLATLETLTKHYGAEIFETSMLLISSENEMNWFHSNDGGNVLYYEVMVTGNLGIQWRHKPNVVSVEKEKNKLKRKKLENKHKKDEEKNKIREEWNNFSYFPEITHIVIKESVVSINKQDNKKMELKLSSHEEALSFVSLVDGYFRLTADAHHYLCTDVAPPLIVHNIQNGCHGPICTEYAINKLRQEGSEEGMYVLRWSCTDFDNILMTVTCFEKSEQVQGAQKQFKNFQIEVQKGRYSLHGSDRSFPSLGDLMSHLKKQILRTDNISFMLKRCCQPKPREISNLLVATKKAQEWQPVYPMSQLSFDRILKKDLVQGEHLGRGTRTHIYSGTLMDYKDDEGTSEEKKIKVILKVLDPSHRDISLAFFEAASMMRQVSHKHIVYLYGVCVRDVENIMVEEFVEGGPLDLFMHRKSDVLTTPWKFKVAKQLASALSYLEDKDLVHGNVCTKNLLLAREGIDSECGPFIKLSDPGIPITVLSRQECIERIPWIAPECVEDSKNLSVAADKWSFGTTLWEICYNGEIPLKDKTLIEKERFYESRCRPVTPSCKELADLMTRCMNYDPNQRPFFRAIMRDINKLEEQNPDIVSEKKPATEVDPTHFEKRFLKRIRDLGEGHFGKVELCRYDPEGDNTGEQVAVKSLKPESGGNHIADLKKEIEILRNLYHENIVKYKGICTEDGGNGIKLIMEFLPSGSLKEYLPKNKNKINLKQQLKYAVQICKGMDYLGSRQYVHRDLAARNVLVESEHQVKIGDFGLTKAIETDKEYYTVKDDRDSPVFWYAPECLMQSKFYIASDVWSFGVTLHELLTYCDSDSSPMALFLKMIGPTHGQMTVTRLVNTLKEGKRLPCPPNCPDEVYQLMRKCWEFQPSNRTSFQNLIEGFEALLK
Outline: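 15 nM JAK1, 8 μM Omnia Y12 peptide, 40 μM (Km app) or 1 mM ATP; 25 mM HEPES pH 7.4, 10 mM MgCl2, 2% DMSO. Fluorescence (ex 360/em 485 nm) read every 50 s over 45 min. IC50 by 4-parameter fit of percent of control, top dose 10 μM.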

[3] = target: T3, JAK2 (Homo sapiens, UniProt O60674); test: JAK2 Inhibition Assay (Omnia kinase fluorescence peptide substrate); details: averaged IC50 ranges; 25 μM (Km app) or 1 mM ATP, 5 nM JAK2
T3 construct: purchased Invitrogen Corporation, Carlsbad, Calif; IVGN PV4288
T3 sequence (O60674 whole entry): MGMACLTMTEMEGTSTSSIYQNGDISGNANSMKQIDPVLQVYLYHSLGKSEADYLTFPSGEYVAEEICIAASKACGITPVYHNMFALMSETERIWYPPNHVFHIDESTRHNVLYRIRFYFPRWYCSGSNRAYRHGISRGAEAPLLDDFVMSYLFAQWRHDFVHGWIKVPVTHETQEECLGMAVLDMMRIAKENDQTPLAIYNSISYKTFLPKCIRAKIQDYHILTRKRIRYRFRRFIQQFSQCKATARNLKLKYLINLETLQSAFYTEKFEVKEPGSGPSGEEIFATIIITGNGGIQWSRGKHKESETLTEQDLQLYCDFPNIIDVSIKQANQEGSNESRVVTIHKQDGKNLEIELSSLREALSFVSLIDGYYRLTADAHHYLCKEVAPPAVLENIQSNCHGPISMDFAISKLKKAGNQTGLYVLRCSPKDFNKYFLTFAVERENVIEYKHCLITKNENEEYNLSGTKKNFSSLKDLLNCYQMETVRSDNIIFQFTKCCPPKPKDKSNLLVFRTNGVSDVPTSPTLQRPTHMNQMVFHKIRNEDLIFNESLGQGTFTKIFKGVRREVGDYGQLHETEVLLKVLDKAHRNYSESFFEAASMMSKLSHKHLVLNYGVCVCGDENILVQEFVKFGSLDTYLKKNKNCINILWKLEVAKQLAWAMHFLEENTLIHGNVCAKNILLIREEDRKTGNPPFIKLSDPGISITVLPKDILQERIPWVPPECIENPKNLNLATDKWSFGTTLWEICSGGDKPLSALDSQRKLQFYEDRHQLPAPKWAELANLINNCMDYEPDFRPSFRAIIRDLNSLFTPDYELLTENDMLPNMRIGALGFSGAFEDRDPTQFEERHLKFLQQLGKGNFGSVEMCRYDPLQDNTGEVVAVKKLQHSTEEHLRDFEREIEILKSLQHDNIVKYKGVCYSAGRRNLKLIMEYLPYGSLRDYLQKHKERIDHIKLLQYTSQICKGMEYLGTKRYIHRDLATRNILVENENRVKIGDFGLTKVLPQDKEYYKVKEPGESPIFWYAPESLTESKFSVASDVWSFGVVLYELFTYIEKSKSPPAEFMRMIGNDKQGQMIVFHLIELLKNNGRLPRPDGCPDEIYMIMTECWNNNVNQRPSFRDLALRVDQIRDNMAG

[4] = target: T4, JAK3 (Homo sapiens, UniProt P52333); test: JAK3 Inhibition Assay (Omnia kinase fluorescence peptide substrate); details: averaged IC50 ranges; 10 μM (Km app) or 1 mM ATP, 2.5 nM JAK3
T4 construct: purchased Invitrogen Corporation, Carlsbad, Calif; IVGN PV4080
T4 sequence (P52333 1-1124): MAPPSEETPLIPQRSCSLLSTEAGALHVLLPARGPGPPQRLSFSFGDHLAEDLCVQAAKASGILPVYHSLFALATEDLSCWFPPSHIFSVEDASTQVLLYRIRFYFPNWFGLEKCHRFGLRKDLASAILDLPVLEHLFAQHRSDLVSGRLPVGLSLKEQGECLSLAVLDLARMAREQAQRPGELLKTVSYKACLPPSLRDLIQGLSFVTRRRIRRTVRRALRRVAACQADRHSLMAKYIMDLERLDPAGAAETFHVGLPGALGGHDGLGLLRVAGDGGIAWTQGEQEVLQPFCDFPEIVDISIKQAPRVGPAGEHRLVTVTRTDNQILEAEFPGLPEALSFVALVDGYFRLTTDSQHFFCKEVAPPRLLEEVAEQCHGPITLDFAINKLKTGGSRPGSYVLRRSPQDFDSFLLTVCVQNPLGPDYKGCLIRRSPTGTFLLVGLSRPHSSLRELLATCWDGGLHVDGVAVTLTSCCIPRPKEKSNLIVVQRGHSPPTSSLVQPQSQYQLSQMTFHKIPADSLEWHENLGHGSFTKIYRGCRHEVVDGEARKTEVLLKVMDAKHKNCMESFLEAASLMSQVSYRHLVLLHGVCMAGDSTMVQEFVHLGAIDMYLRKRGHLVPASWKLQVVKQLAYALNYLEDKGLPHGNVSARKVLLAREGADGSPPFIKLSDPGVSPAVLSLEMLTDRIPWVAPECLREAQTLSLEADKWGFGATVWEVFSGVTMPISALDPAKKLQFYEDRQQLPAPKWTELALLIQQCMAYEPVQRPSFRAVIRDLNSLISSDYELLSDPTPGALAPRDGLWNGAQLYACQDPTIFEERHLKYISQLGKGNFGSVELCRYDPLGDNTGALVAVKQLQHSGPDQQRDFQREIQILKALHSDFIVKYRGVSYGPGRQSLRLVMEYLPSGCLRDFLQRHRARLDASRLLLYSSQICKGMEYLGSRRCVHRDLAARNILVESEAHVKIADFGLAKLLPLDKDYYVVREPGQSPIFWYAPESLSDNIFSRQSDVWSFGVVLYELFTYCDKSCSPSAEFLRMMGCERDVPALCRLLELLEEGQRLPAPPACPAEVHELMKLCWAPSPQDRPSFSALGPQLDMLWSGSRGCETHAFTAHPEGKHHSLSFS
Outline: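 IC50 is the concentration giving 50 percent of control on a 4-parameter logistic fit of 10-point, 3-fold dilutions from a 10 μM top dose, at 2% final DMSO. Kinetic Sox fluorescence (360/485 nm) was monitored every 50 s for 45 min. Mix: JAK3 2.5 nM, Omnia Y7 peptide 10 μM, ATP 10 μM (Km app) or 1 mM, in HEPES pH 7.4 buffer with MgCl2, Triton X-100 and DTT.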

SMILES | IC50 [1] | IC50 [2] | IC50 [3] | IC50 [4]
CCCCC1(n2cc(-c3nc(-c4cnn(C)c4)cc4nccn34)cn2)CN(S(=O)(=O)C(F)(F)F)C1 [Example 83, 5-(1-(3-butyl-1-((trifluoromethyl)sulfonyl)azetidin-3-yl)-1H-pyrazol-4-yl)-7-(1-methyl-1H-pyrazol-4-yl)imidazo[1,2-c]pyrimidine] | 10 to 100 nM | 100 to 1000 nM | 100 to 1000 nM | 100 to 1000 nM
Cn1cc(-c2cc3nccn3c(-c3cnn(C(CCF)C4CCC4)c3)n2)cn1 (stereo not shown) [Example 69, 5-(1-(1-cyclobutyl-3-fluoropropyl)-1H-pyrazol-4-yl)-7-(1-methyl-1H-pyrazol-4-yl)imidazo[1,2-c]pyrimidine] | < 10 nM | 100 to 1000 nM | 10 to 100 nM | 100 to 1000 nM
Cc1cc(-c2cc3nccn3c(-c3cnn(C4(CCF)CN(S(=O)(=O)C(F)(F)F)C4)c3)n2)[nH]n1 [Example 58, 5-(1-(3-(2-fluoroethyl)-1-((trifluoromethyl)sulfonyl)azetidin-3-yl)-1H-pyrazol-4-yl)-7-(3-methyl-1H-pyrazol-5-yl)imidazo[1,2-c]pyrimidine] | < 10 nM | 100 to 1000 nM | 10 to 100 nM | 100 to 1000 nM
CO[C@H](C)Cn1cc(-c2cc3nccn3c(-c3cnn(C4(CCF)CN(S(=O)(=O)C(F)(F)F)C4)c3)n2)cn1 [Example 59, (R)-5-(1-(3-(2-fluoroethyl)-1-((trifluoromethyl)sulfonyl)azetidin-3-yl)-1H-pyrazol-4-yl)-7-(1-(2-methoxypropyl)-1H-pyrazol-4-yl)imidazo[1,2-c]pyrimidine] | < 10 nM | 100 to 1000 nM | 10 to 100 nM | 100 to 1000 nM
Cn1cc(-c2cc3nccn3c(-c3cnn(C(CCO)C4CC4)c3)n2)cn1 (stereo not shown) [Example 13, 3-cyclopropyl-3-(4-(7-(1-methyl-1H-pyrazol-4-yl)imidazo[1,2-c]pyrimidin-5-yl)-1H-pyrazol-1-yl)propan-1-ol] | 100 to 1000 nM | > 1000 nM | 100 to 1000 nM | > 1000 nM
C=CCC1(n2cc(-c3nc(-c4cnn(C)c4)cc4nccn34)cn2)CN(S(=O)(=O)C(F)(F)F)C1 [Example 91, 5-(1-(3-allyl-1-((trifluoromethyl)sulfonyl)azetidin-3-yl)-1H-pyrazol-4-yl)-7-(1-methyl-1H-pyrazol-4-yl)imidazo[1,2-c]pyrimidine] | < 10 nM | 10 to 100 nM | 10 to 100 nM | 100 to 1000 nM
CSCCn1cc(-c2nc(-c3cnn(C)c3)cc3nccn23)cn1 [Example 21, 7-(1-methyl-1H-pyrazol-4-yl)-5-(1-(2-(methylthio)ethyl)-1H-pyrazol-4-yl)imidazo[1,2-c]pyrimidine] | 10 to 100 nM | 100 to 1000 nM | 10 to 100 nM | 100 to 1000 nM
Cn1cc(-c2cc3nccn3c(-c3cnn(C4(C)CN(S(=O)(=O)C(F)(F)F)C4)c3)n2)cn1 [Example 16, 5-(1-(3-Methyl-1-(trifluoromethylsulfonyl)azetidin-3-yl)-1H-pyrazol-4-yl)-7-(1-methyl-1H-pyrazol-4-yl)imidazo[1,2-c]pyrimidine] | 10 to 100 nM | 100 to 1000 nM | 100 to 1000 nM | > 1000 nM
Cn1cc(-c2cc3nccn3c(-c3cnn(C4(CC(=O)O)CN(S(=O)(=O)C(F)(F)F)C4)c3)n2)cn1 [Example 2, 2-(3-(4-(7-(1-methyl-1H-pyrazol-4-yl)imidazo[1,2-c]pyrimidin-5-yl)-1H-pyrazol-1-yl)-1-((trifluoromethyl)sulfonyl)azetidin-3-yl)acetic acid] | 100 to 1000 nM | > 1000 nM | > 1000 nM | > 1000 nM
CCC(CCCO)n1cc(-c2nc(-c3cnn(C)c3)cc3nccn23)cn1 (stereo not shown) [Example 65, 4-(4-(7-(1-methyl-1H-pyrazol-4-yl)imidazo[1,2-c]pyrimidin-5-yl)-1H-pyrazol-1-yl)hexan-1-ol] | 10 to 100 nM | 100 to 1000 nM | 100 to 1000 nM | 100 to 1000 nM
Cn1cc(-c2cc3nccn3c(-c3cnn(C4(CCF)CN(S(C)(=O)=O)C4)c3)n2)cn1 [Example 64, 5-(1-(3-(2-fluoroethyl)-1-(methylsulfonyl)azetidin-3-yl)-1H-pyrazol-4-yl)-7-(1-methyl-1H-pyrazol-4-yl)imidazo[1,2-c]pyrimidine] | 10 to 100 nM | 100 to 1000 nM | 10 to 100 nM | 100 to 1000 nM
Cn1cc(-c2cc3nccn3c(-c3cnn(C(CC4CC4)CC4CC4)c3)n2)cn1 [Example 11, 5-(1-(1,3-Dicyclopropylpropan-2-yl)-1H-pyrazol-4-yl)-7-(1-methyl-1H-pyrazol-4-yl)imidazo[1,2-c]pyrimidine] | 10 to 100 nM | 100 to 1000 nM | 10 to 100 nM | 100 to 1000 nM
Cn1cc(-c2cc3nccn3c(-c3cnn([C@@H](CCF)C4CCC4)c3)n2)cn1 [Example 37, (S)-5-(1-(1-cyclobutyl-3-fluoropropyl)-1H-pyrazol-4-yl)-7-(1-methyl-1H-pyrazol-4-yl)imidazo[1,2-c]pyrimidine] | 10 to 100 nM | 100 to 1000 nM | 100 to 1000 nM | 100 to 1000 nM
Cn1cc(-c2cc3nccn3c(-c3cnn([C@@H](CC=C(F)F)C4CC4)c3)n2)cn1 [Example 50, (S)-5-(1-(1-cyclopropyl-4,4-difluorobut-3-en-1-yl)-1H-pyrazol-4-yl)-7-(1-methyl-1H-pyrazol-4-yl)imidazo[1,2-c]pyrimidine] | < 10 nM | 10 to 100 nM | < 10 nM | 10 to 100 nM
Cn1cc(-c2cc3nccn3c(-c3ccn(C4(CCF)CN(S(=O)(=O)C(F)(F)F)C4)c3)n2)cn1 [Example 26, 5-(1-(3-(2-fluoroethyl)-1-((trifluoromethyl)sulfonyl)azetidin-3-yl)-1H-pyrrol-3-yl)-7-(1-methyl-1H-pyrazol-4-yl)imidazo[1,2-c]pyrimidine] | < 10 nM | 10 to 100 nM | 10 to 100 nM | 10 to 100 nM
CC(=O)CC(C1CC1)n1cc(-c2nc(-c3cnn(C)c3)cc3nccn23)cn1 (stereo not shown) [Example 61, 4-cyclopropyl-4-(4-(7-(1-methyl-1H-pyrazol-4-yl)imidazo[1,2-c]pyrimidin-5-yl)-1H-pyrazol-1-yl)butan-2-one] | 100 to 1000 nM | > 1000 nM | 100 to 1000 nM | > 1000 nM

Source: patent publication US20140228349A1, “5,7-SUBSTITUTED-IMIDAZO[1,2-C]PYRIMIDINES” (Array BioPharma Inc., priority 2011, published 2014)
